{
  "source": "patent US20250051594A1",
  "about": "“INKJET INK” (KYOCERA DOCUMENT SOLUTIONS INC., priority 2023, published 2025)",
  "origin": "cited, not measured here",
  "data": [
    {"settings": "octanol/water partition coefficient of the organic solvent", "values": [
      {"smiles": "OCCOCCO", "note": "[Diethylene glycol]", "LogKow": "−1.47"},
      {"smiles": "CCCCOCCOCCOC", "note": "[Diethylene glycolbutylmethylether]", "LogKow": "−1.20"},
      {"smiles": "COCCOCCOCCO", "note": "[Triethylene glycol monomethylether]", "LogKow": "−1.46"},
      {"smiles": "OCC(O)CO", "note": "[Glycerin]", "LogKow": "−1.76"},
      {"smiles": "CCCOC(C)COC(C)CO", "note": "(centres unmarked) [Dipropylene glycol monopropylether]", "LogKow": "−1.53"},
      {"smiles": "COC(C)COC(C)COC(C)CO", "note": "(centres unmarked) [Tripropylene glycol monomethylether]", "LogKow": "−1.24"},
      {"smiles": "CCCCOCC(C)O", "note": "(centres unmarked) [Propylene glycol monobutylether]", "LogKow": "−1.36"},
      {"smiles": "OCCOCCOCCO", "note": "[Triethylene glycol]", "LogKow": "−1.75"},
      {"smiles": "CCCCOCCOCC", "note": "[EBEE, ethylene glycol butylethylether]", "LogKow": "−1.88"},
      {"smiles": "OCCCO", "note": "[1,3-propanediol]", "LogKow": "−1.04"},
      {"smiles": "COCCOCCO", "note": "[Diethylene glycol monomethylether]", "LogKow": "−1.18"},
      {"smiles": "CC(O)CO", "note": "(centres unmarked) [PG, propylene glycol]", "LogKow": "−0.92"}
    ]},
    {"settings": "octanol/water partition coefficient of the organic solvent; listed as ethylene glycolbutylethylether", "values": [
      {"smiles": "CCCCOCCOCC", "note": "[EBEE, ethylene glycol butylethylether]", "LogKow": "lower than −1.80"}
    ]},
    {"settings": "octanol/water partition coefficient of the organic solvent; listed as propylene glycol", "values": [
      {"smiles": "CC(O)CO", "note": "(centres unmarked) [PG, propylene glycol]", "LogKow": "higher than −1.00"}
    ]}
  ]
}
